Assay results: US6894021B2, “Method for identifying and using A2B adenosine receptor antagonists to mediate mammalian cell proliferation” (CV Therapeutics, Inc., priority 2000, dated 2005)
“Also recorded” adds a separate entry of the source.

Assays:
Assay type in all cases: cell-based
[1] = test system: human retinal endothelial cells (HREC); experiment: HREC proliferation assay (cell counting, Coulter Counter); conditions: for Effect on NECA-induced HREC proliferation: antagonist 10 μmol/L with NECA 10 μmol/L, FIG. 1A
Description: (§1) Primary cultures of HREC were prepared and maintained as previously described and cells in passage 3-6 were used for these studies. […] To maintain purity of HREC, several precautionary steps were taken. […] In addition, cultures of HREC were exposed to trypsin for only 45 sec prior to passage. Endothelial cells float off during this short trypsin treatment while pericytes remain attached to the substrate.
HREC were seeded at 10 cells/cm in 24 well plates and allowed to adhere overnight. Cells were washed in Hank's balanced salt solution and the medium was replaced with serum—and growth supplement-free medium (SFM) for 24 hr to induce cell-cycle arrest. Cells were washed again and pre-treated with 1 U/mL adenosine deaminase (ADA) for 30 min. […] Controls were HREC exposed to SFM or normal growth medium. For the next three days at 24-hour intervals replicate wells were treated with trypsin and the cells were collected and counted using a Coulter Counter. Each condition was examined in triplicate in three separate experiments using cells from different donors for each experiment.

[2] = test system: human retinal endothelial cells (HREC); experiment: Endothelial cell chemotaxis / chemokinesis in blind-well (Boyden) chambers; conditions: for Effect on NECA-stimulated HREC migration (chemotaxis): antagonist 10 μmol/L co-added with NECA 10 μmol/L
Description: as §1
Endothelial cell chemotaxis was measured in blind-well chemotaxis chambers (Neuroprobe, Inc, Bethesda, Md.) as previously described. Briefly a single cell suspension of endothelial cells ([…] cells/well) was prepared and treated with ADA (1 U/mL). Thirty microliters of this suspension was placed in each of 48 lower wells of the blind-well apparatus. The wells were overlaid with a porous (5 μm diameter pore) polyvinyl—and pyrrolidone-free polycarbonate membrane (Nucleopore, Pleasanton, Calif.), coated with 0.1% dermal collagen. The cells were allowed to attach to the membrane by inverting the chamber of 2 h. The chambers were then placed upright and exposed to NECA alone (10 μmol/L), NECA combined with 3-N-propylxanthine (10 μmol/L), JW-V1-08 (10 μmol/L) or the non-selective AdoR antagonist xanthine amine congener (XAC, 10 μmol/L) in a 50 μL volume. After incubation for 12 h, the membrane was recovered and scraped free of cells on the attachment side. The remaining cells, those that had migrated through the pores, were fixed in methanol, is stained with modified Wright's stain and then counter-stained with haematoxylin and eosin. The positive control was 10% fetal bovine serum and the negative control was 1% ablumin. Chemokinesis, the non-oriented increase in cell migration in response to a stimulus, was measured by adding equal concentration of NECA or NECA plus one of the antagonists to both lower and upper chambers. Treatment conditions were examined in triplicate in three separate experiments.

[3] = test system: human retinal endothelial cells (HREC); experiment: Matrigel assay of endothelial tube formation; conditions: 48 h; for Effect on NECA-induced tube formation on Matrigel (photomicrographs): antagonist 10 μmol/L with NECA 10 μmol/L, FIG. 2C, 2D; for Total tube length in the presence of NECA: antagonist added to NECA, NECA alone 74.2±2.4
Description: as §1
Endothelial tube formation was assessed on Matrigel. Briefly, Matrigel was thawed and kept at 4° C. Multi-well plates and pipette tips were chilled to −20° C. and Matrigel (125 μL) was added to each well of a 48-well plate and allowed to harden for a minimum of 1 h at 37° C. HREC were dissociated enzymatically (2 min at 37° C. in 0.25% Trypsin-EDTA), centrifuged (300×g, 5 min) and re-suspended in serum-free media. Test agents (100 μL) were prepared at 2× final concentration and 100 μL were added to wells. HREC (3×10 in 100 μL per well) were then added and plates were incubated at 37° C. Wells were photographed 48 h after plating. Identical fields in each well were photographed to minimize the possible variation due to variable cell density caused by the settling of cells. […] All conditions were tested in duplicate wells in three separate experiments using cells from different donors.

Structure (SMILES) | Effect on NECA-induced HREC proliferation [1] | Effect on NECA-stimulated HREC migration (chemotaxis) ([2]; 12 h, FIG. 1B) | Effect on NECA-induced tube formation on Matrigel (photomicrographs) [3] | Total tube length in the presence of NECA ([3]; p<0.01) | HREC proliferation by cell counts, as density relative to cells exposed to normal growth medium ([1]; NECA 10 μmol/L, 3 days, ADA-pretreated serum-starved HREC) | HREC chemotaxis / migration ([2]; NECA alone versus unstimulated cells, 12 h, FIG. 1B) | Chemokinesis (non-oriented increase in cell migration) ([2]; equal concentration in lower and upper chambers) | Endothelial cell tube formation on Matrigel (photomicrographs) ([3]; NECA 10 μmol/L alone, FIG. 2B) | Increase of tube length over untreated cells ([3]; NECA alone) | Total tube length ([3]; NECA alone, untreated cells 35.7±1.6, p<0.01)
CCCn1c(=O)[nH]c(=O)c2[nH]cnc21 [3-N-propylxanthine] | completely blocked; also recorded: completely block the proliferative effect of NECA | antagonized the stimulatory effect of NECA on chemotaxis | diminished NECA-induced tube formation; also recorded: inhibited tube formation, resulting in fewer tubes of shorter length | 53.7±0.9 pixel |  |  |  |  |  | 
CCCn1c(=O)c2[nH]c(-c3ccc(OCC(=O)NCCN)cc3)nc2n(CCC)c1=O [XAC, xanthine amine congener] |  | abolished NECA-stimulated migration of HREC |  |  |  |  |  |  |  | 
CCNC(=O)[C@H]1O[C@@H](n2cnc3c(N)ncnc32)[C@H](O)[C@@H]1O [NECA, 5′-N-ethylcarboxamido-adenosine] |  |  |  |  | about 80% | concentration-dependent increase in HREC migration; also recorded: increased migration in a concentration-dependent manner | Neither NECA alone nor NECA in combination with the AdoR antagonists induced chemokinesis | supported extensive tube formation | more than 2 fold | 74.2±2.4 pixel
CC(C)Cn1c(=O)[nH]c(=O)c2[nH]c(N3CCCC3)nc21 [JW-V1-08, 3-isobutyl-8-pyrrolidinoxanthine] | completely blocked; also recorded: completely block the proliferative effect of NECA | antagonized the stimulatory effect of NECA on chemotaxis | diminished NECA-induced tube formation; also recorded: inhibited | 66±1.2 pixel |  |  |  |  |  | 
